# Assay results as given in patent US12251469B2, “Sterically stabilized carrier compositions for treating a mammal” (VGSK Technologies, Inc., priority 2015, dated 2025).
# System: sensitized mice
# Experiment: Preliminary dose-response study of BUD in sensitized mice, histopathologic examination
# Format: in vivo
# Experimental: The dose of BUD chosen was based on preliminary dose-response studies with 5 to 50 μg of BUD as follows.
# Each day, 5, 10, 15, 20 or 50 μg of BUD was administered to groups of sensitized mice, and the dose-dependent effects on the inflammatory parameters were evaluated.
# The tissues were removed and fixed with 10% phosphate buffered formalin. Tissue samples were taken from the skin, spleen, liver, gastrointestinal tract, and kidney. The tissues were embedded in paraffin, sectioned at 5 μm thickness and stained with hematoxylin and eosin and analyzed using light microscopy.
# Coded slides were examined by a pathologist in a blinded fashion for evidence of inflammatory changes, including epithelial hyperplasia and perivascular edema and accumulation of eosinophils, neutrophils, and mononuclear inflammatory cells. Each of the parameters evaluated was given an individual number score. Objective measurements of histopathological changes include aggregation of eosinophils around blood vessels (perivascular), accumulation of other inflammatory cells, presence of desquamation and hyperplasia of the epithelium, and infiltration of inflammatory cells.
structure (smiles),measurement,value
"CCCC1O[C@@H]2C[C@H]3[C@@H]4CCC5=CC(=O)C=C[C@]5(C)[C@H]4[C@@H](O)C[C@]3(C)[C@]2(C(=O)CO)O1 (stereo partly shown) [Daily BUD, budesonide]",granulomas or abnormalities in any of the tissues evaluated,no granulomas or abnormalities
